Assay results taken from patent US20240417410A1, “TRICYCLIC COMPOUNDS FOR THE TREATMENT OF CANCER” (Hoffmann-La Roche Inc., priority 2023, published 2024).

Tests used:
[1] = system: AGS cells (KRAS G12D); experiment: Cell viability assay (Cell Counting Kit-8, 3-day); assay type: cell-based, human; details: Homo sapiens, 72 h, 72 hrs incubation
In short: (§1)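 Seed NCI-H358 5,000/well, AGS and SW620 2,000/well; overnight. Compound, 0.5% DMSO final, 72 hrs. CCK-8 2 hrs, OD450–OD650. IC50: 4-parameter fit.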

[2] = system: NCI-H358 cells (KRAS G12C); experiment: Cell viability assay (Cell Counting Kit-8, 3-day); assay type: cell-based, human; details: Homo sapiens, NCI-H358, 72 h, NCI-H358, 72 hrs incubation
In short: as §1

[3] = system: SW620 cells (KRAS G12V); experiment: Cell viability assay (Cell Counting Kit-8, 3-day); assay type: cell-based, human; details: Homo sapiens, SW-620; SW620, 72 hrs incubation
In short: as §1

[4] = target: KRAS G12C-BRAF complex (Homo sapiens (Human), UniProt P01116+P62937, G12C); experiment: KRAS-BRAF with CYPA (500 nM) interaction assay (TR-FRET, Example 136); assay type: biochemical; details: KRAS G12C-BRAF disruption
[5] = system: phosphorylation of ERK, KRAS G12C in NCI-H358 cells; experiment: pERK inhibition assay; assay type: cell-based; details: Homo sapiens, NCI-H358, 4 h
In short: (§2)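 Cells in RPMI-1640 with 10% FBS were plated overnight (30,000/well H358, 20,000 AGS, 30,000 SW620) and treated 4 h with compounds at 0.5% DMSO. After formaldehyde fixation and methanol permeabilization, pERK was detected by in-cell ELISA with HRP secondary and TMB (OD450); IC50 from 4-parameter fit.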

[6] = system: phosphorylation of ERK, KRAS G12D in AGS cells; experiment: pERK inhibition assay; assay type: cell-based; details: Homo sapiens, AGS, 4 h
In short: as §2

[7] = system: phosphorylation of ERK, KRAS G12V in SW620; experiment: pERK inhibition assay; assay type: cell-based; details: Homo sapiens, SW-620, 4 h, SW620 cells
In short: as §2

KRAS G12C-BRAF complex, sequence (P01116-2 other isoform, or with tags, fused parts or gaps G12C): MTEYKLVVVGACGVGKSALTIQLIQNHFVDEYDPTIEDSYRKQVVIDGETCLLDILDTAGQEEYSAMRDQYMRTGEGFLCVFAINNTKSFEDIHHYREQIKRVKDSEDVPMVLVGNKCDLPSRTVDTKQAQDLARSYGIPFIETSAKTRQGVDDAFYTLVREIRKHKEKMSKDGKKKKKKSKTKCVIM
KRAS G12C-BRAF complex, sequence (P62937 whole entry): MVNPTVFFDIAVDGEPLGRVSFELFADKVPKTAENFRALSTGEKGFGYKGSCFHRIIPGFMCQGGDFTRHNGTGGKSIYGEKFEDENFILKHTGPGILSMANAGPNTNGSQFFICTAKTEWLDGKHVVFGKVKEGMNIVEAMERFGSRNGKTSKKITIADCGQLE

Row | Structure (SMILES) | IC50 [1] [nM] | IC50 [2] [nM] | IC50 [3] [nM] | IC50 [4] [nM] | IC50 [5] [nM] | IC50 [6] [nM] | IC50 [7] [nM]
1 | CO[C@@H](C)c1ncc(N2CCN(C)CC2)cc1-c1c2c3cc(cc4c3n1CCC4)-c1csc(n1)C[C@H](NC(=O)[C@H]1C[C@@H]1c1cnccn1)C(=O)N1CCC[C@H](N1)C(=O)OCC(C)(C)C2 (atropisomer, axis not shown; (M)) [Example 99, (1S,2S)-N-[(7S,13S)-(20M)-20-[2-[(1S)-1-methoxyethyl]-5-(4-methylpiperazin-1-yl)-3-pyridyl]-17,17-dimethyl-8,14-dioxo-15-oxa-4-thia-9,21,30,31-tetrazahexacyclo[23.3.1.1^2,5.1^9,13.0^19,27.0^21,26]hentriaconta-1 (28),2,5 (31), 19,25 (29),26-hexaen-7-yl]-2-pyrazin-2-yl-cyclopropanecarboxamide] | 7.8 | 2.1 | 0.4 | 12.6 | 0.5 | 1.9 | 0.4
2 | CO[C@@H](C)c1ncc(N2CCN3CCOC[C@@H]3C2)cc1-c1c2c3cc(cc4c3n1CCC4)-c1csc(n1)C[C@H](NC(=O)[C@H]1C[C@@H]1C(F)F)C(=O)N1CCC[C@H](N1)C(=O)OCC(C)(C)C2 (atropisomer, axis not shown; (M)) [Example 41, (1S,2S)-N-[(7S,13S)-(20M)-20-[5-[(9αS)-3,4,6,7,9,9a-hexahydro-1H-pyrazino[2,1-c][1,4]oxazin-8-yl]-2-[(1S)-1-methoxyethyl]-3-pyridyl]-17,17-dimethyl-8,14-dioxo-15-oxa-4-thia-9,21,30,31-tetrazahexacyclo[23.3.1.1^2,5.1^9,13.0^19,27.0^21,26]hentriaconta-1 (28),2,5 (31),19,25 (29),26-hexaen-7-yl]-2-(difluoromethyl)cyclopropanecarboxamide] | 14 | 3.6 | 0.9 | 23.8 | 0.4 | 4.8 | 0.4
3 | CO[C@@H](C)c1ncc(N2CCN(C)CC2)cc1-c1c2c3cc(cc4c3n1CC(F)(F)C4)-c1csc(n1)C[C@H](NC(=O)[C@H]1[C@H](C)[C@@H]1C)C(=O)N1CCC[C@H](N1)C(=O)OCC(C)(C)C2 (atropisomer, axis not shown; (M)) [Example 83] | 9.2 | 3.1 | 0.5 | 10.3 | 0.9 | 6 | 0.5
4 | CO[C@@H](C)c1ncc(N2CCOCC2)cc1-c1c2c3cc(cc4c3n1CC(C)(C)O4)-c1csc(n1)C[C@H](NC(=O)[C@H]1[C@H](C)[C@@H]1C)C(=O)N1CCC[C@H](N1)C(=O)OCC(C)(C)C2 (atropisomer, axis not shown; (M)) [Example 61, (1r,2R,3S)-N-[(7S,13S)-(20M)-20-[2-[(1S)-1-methoxyethyl]-5-morpholino-3-pyridyl]-17,17,23,23-tetramethyl-8,14-dioxo-15,24-dioxa-4-thia-9,21,30,31-tetrazahexacyclo[23.3.1.1^2,5.1^9,13.0^19,27.0^21,26]hentriaconta-1 (28),2,5 (31), 19,25 (29),26-hexaen-7-yl]-2,3-dimethyl-cyclopropanecarboxamide] | 33.4 | 22.6 | 3 | 50.9 | 8.5 | 10.3 | 1.1
5 | CO[C@@H](C)c1ncc(N2CCN(C)CC2)cc1-c1c2c3cc(cc4c3n1CCC4)-c1csc(n1)C[C@H](NC(=O)[C@@H]1C[C@H]1c1cccnc1C)C(=O)N1CCC[C@H](N1)C(=O)OCC(C)(C)C2 (atropisomer, axis not shown; (M)) [Example 116, (1R,2R)-N-[(7S,13S)-(20M)-20-[2-[(1S)-1-methoxyethyl]-5-(4-methylpiperazin-1-yl)-3-pyridyl]-17,17-dimethyl-8,14-dioxo-15-oxa-4-thia-9,21,30,31-tetrazahexacyclo[23.3.1.1^2,5.1^9,13.0^19,27.0^21,26]hentriaconta-1 (28),2,5 (31), 19,25 (29),26-hexaen-7-yl]-2-(2-methyl-3-pyridyl)cyclopropanecarboxamide] | 3.5 | 1.4 | 0.5 | 20.6 | 0.8 | 4.6 | 0.7
6 | CO[C@@H](C)c1ncc(N2CCN(C)CC2)cc1-c1c2c3cc(cc4c3n1CCC4)-c1csc(n1)C[C@H](NC(=O)[C@H]1C[C@@H]1c1ccccn1)C(=O)N1CCC[C@H](N1)C(=O)OCC(C)(C)C2 (atropisomer, axis not shown; (M)) [Example 30, (1S,2S)-N-[(7S,13S)-(20M)-20-[2-[(1S)-1-methoxyethyl]-5-(4-methylpiperazin-1-yl)-3-pyridyl]-17,17-dimethyl-8,14-dioxo-15-oxa-4-thia-9,21,30,31-tetrazahexacyclo[23.3.1.1^2,5.1^9,13.0^19,27.0^21,26]hentriaconta-1 (28),2,5 (31),19,25 (29),26-hexaen-7-yl]-2-(2-pyridyl)cyclopropanecarboxamide] | 23.4 | 4.9 | 1.3 | 17.2 | 1.3 | 7.3 | < 0.6
7 | CO[C@@H](C)c1ncc(N2CCN(C3CCOCC3)CC2)cc1-c1c2c3cc(cc4c3n1CCC4)-c1csc(n1)C[C@H](NC(=O)[C@H]1[C@H](C)[C@@H]1C)C(=O)N1CCC[C@H](N1)C(=O)OCC(C)(C)C2 (atropisomer, axis not shown; (M)) [Example 117, (1r,2R,3S)-N-[(7S,13S)-(20M)-20-[2-[(1S)-1-methoxyethyl]-5-(4-tetrahydropyran-4-ylpiperazin-1-yl)-3-pyridyl]-17,17-dimethyl-8,14-dioxo-15-oxa-4-thia-9,21,30,31-tetrazahexacyclo[23.3.1.1^2,5.1^9,13.0^19,27.0^21,26]hentriaconta-1 (28),2,5 (31), 19,25 (29),26-hexaen-7-yl]-2,3-dimethyl-cyclopropanecarboxamide] | 2.5 | 1.5 | 0.2 | 15.9 | 0.7 | 4.1 | 0.3
8 | CO[C@@H](C)c1ncc(N2CCN(C)CC2)cc1-c1c2c3cc(cc4c3n1CCO4)-c1csc(n1)C[C@H](NC(=O)[C@H]1C[C@@H]1c1cccnc1)C(=O)N1CCC[C@H](N1)C(=O)OCC(C)(C)C2 (atropisomer, axis not shown; (M)) [Example 96, (1S,2S)-N-[(7S,13S)-(20M)-20-[2-[(1S)-1-methoxyethyl]-5-(4-methylpiperazin-1-yl)-3-pyridyl]-17,17-dimethyl-8,14-dioxo-15,24-dioxa-4-thia-9,21,30,31-tetrazahexacyclo[23.3.1.1^2,5.1^9,13.0^19,27.0^21,26]hentriaconta-1 (28),2,5 (31),19,25 (29),26-hexaen-7-yl]-2-(3-pyridyl)cyclopropanecarboxamide] | 1.7 | 1 | 0.2 | 9.4 | 0.4 | 1.2 | 0.4
9 | CO[C@@H](C)c1ncc(N2CCN(C)CC2)cc1-c1c2c3cc(cc4c3n1CCC4)-c1csc(n1)C[C@H](NC(=O)[C@H]1C[C@@H]1c1cccnn1)C(=O)N1CCC[C@H](N1)C(=O)OCC(C)(C)C2 (atropisomer, axis not shown; (M)) [Example 63, (1S,2S)-N-[(7S,13S)-(20M)-20-[2-[(1S)-1-methoxyethyl]-5-(4-methylpiperazin-1-yl)-3-pyridyl]-17,17-dimethyl-8,14-dioxo-15-oxa-4-thia-9,21,30,31-tetrazahexacyclo[23.3.1.1^2,5.1^9,13.0^19,27.0^21,26]hentriaconta-1 (28),2,5 (31), 19,25 (29),26-hexaen-7-yl]-2-pyridazin-3-yl-cyclopropanecarboxamide] | 78 | 10.6 | 4.2 | 34 | 5.1 | 18.3 | 3
10 | CO[C@@H](C)c1ncc(N2CCN(C)CC2)cc1-c1c2c3cc(cc4c3n1CCC4)-c1csc(n1)C[C@H](NC(=O)[C@H]1C[C@@H]1C)C(=O)N1CCC[C@H](N1)C(=O)OCC(C)(C)C2 (atropisomer, axis not shown; (M)) [Example 2, (1S,2S)-N-[(7S,13S)-(20M)-20-[2-[(1S)-1-methoxyethyl]-5-(4-methylpiperazin-1-yl)-3-pyridyl]-17,17-dimethyl-8,14-dioxo-15-oxa-4-thia-9,21,30,31-tetrazahexacyclo[23.3.1.1^2,5.1^9,13.0^19,27.0^21,26]hentriaconta-1 (28),2,5 (31), 19,25 (29),26-hexaen-7-yl]-2-methyl-cyclopropanecarboxamide] | 29.9 | 10.1 | 1.2 | 28.8 | 3.4 | 3 | 1.4
